Patent US20210269451A1, “PYRIDINYL HETEROCYCLYL COMPOUNDS FOR THE TREATMENT OF AUTOIMMUNE DISEASE” (Hoffmann-La Roche Inc., priority 2018, published 2021)

target: T1, human TLR8 (Homo sapiens, UniProt Q9NR97); assay: HEK293-Blue-hTLR-8 cells assay; format: cell-based; conditions: HEK293-Blue-hTLR8 cells, R848 stimulation, 20 hrs, SEAP reporter; read-out: HEK/hTLR8 IC50
T1 construct: host or cells: HEK293-Blue-hTLR-8 (HEK293)
T1 sequence (Q9NR97 27-1041): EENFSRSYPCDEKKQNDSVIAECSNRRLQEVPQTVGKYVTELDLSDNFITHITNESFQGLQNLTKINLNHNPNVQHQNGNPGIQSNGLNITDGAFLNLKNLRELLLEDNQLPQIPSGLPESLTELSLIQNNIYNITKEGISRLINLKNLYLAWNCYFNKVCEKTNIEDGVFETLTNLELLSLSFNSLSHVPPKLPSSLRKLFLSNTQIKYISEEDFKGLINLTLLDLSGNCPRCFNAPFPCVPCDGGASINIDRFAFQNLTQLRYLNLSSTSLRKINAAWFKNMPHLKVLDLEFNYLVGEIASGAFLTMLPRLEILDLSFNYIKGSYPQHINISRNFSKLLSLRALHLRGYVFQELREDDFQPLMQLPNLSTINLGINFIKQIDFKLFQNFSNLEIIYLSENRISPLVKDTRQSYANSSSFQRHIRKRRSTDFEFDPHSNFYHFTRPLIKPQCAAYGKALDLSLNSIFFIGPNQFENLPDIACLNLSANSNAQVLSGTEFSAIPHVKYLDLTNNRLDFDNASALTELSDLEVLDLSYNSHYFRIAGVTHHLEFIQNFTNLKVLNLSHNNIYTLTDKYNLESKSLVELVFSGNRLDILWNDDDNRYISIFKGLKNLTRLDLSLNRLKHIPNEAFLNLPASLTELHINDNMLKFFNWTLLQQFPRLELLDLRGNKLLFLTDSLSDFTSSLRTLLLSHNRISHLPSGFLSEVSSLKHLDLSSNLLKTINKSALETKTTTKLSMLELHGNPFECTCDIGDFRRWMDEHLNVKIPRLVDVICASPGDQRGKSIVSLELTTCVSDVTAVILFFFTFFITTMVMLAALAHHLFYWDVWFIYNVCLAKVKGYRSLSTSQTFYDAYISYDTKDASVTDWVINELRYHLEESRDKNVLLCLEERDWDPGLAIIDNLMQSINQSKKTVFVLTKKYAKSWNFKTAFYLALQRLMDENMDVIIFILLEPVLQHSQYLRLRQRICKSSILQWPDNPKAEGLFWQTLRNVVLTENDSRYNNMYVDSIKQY
Description: The following tests were carried out in order to determine the activity of the compounds of formula (I) and (Ia) in HEK293-Blue-hTLR-7/8/9 cells assay.
HEK293-Blue-hTLR-8 cells assay:
A stable HEK293-Blue-hTLR-8 cell line was purchased from InvivoGen (Cat. #: hkb-htlr8, San Diego, Calif., USA). These cells were originally designed for studying the stimulation of human TLR8 by monitoring the activation of NE-κB. A SEAP (secreted embryonic alkaline phosphatase) reporter gene was placed under the control of the IFN-β minimal promoter fused to five NE-κB and AP-1-binding sites. The SEAP was induced by activating NE-κB and AP-1 via stimulating HEK-Blue hTLR8 cells with TLR8 ligands. Therefore the reporter expression was declined by TLR8 antagonist under the stimulation of a ligand, such as R848, for incubation of 20 hrs. The cell culture supernatant SEAP reporter activity was determined using QUANTI-Blue™ kit (Cat. #: rep-qbl, Invivogen, San Diego, Ca, USA) at a wavelength of 640 nm, a detection medium that turns purple or blue in the presence of alkaline phosphatase.
HEK293-Blue-hTLR8 cells were incubated at a density of 250,000-450,000 cells/mL in a volume of 170 μL in a 96-well plate in Dulbecco's Modified Eagle's medium (DMEM) containing 4.5 g/L glucose, 50 U/mL penicillin, […], […], 2 mM L-glutamine, 10% (v/v) heat-inactivated fetal bovine serum with addition of 20 μL test compound in a serial dilution in the presence of final DMSO at 1% and 10 μL of 60 uM R848 in above DMEM, perform incubation under 37° C. in a CO2 incubator for 20 hrs. Then 20 μL of the supernatant from each well was incubated with 180 μL Quanti-blue substrate solution at 37° C. for 2 hrs and the absorbance was read at 620˜655 nm using a spectrophotometer. The signalling pathway that TLR8 activation leads to downstream NE-κB activation has been widely accepted, and therefore similar reporter assay was modified for evaluating TLR8 antagonist.

| Compound | IC50 [nM] |
| --- | --- |
| Cc1cc(N2CCC(NC[C@H]3CN(c4ccc(C#N)c5ncccc45)C[C@@H](C)O3)CC2)cc(CO)n1 [Example 23] | 41 |
| C[C@@H]1CN(c2ccc(C#N)c3ncccc23)C[C@H](CN2CC3(C2)CN(c2ccnc(CO)c2)CCO3)O1 [Example 51] | 3 |
| Cc1cc(N2CCOC3(CN(C[C@H]4CN(c5ccc(C#N)c6ncccc56)C[C@@H](C)O4)C3)C2)ccn1 [Example 16] | < 3 |
| Cc1cc(N2CCN(C[C@H]3CN(c4ccc(C#N)c5ncccc45)C[C@@H](C)O3)CC2)cc(CO)n1 [Example 50] | 4 |
| Cc1cc(N2CCOC3(CN(C[C@H]4CN(c5ccc(C#N)c6ncccc56)C[C@@H](C)O4)C3)C2)cc(C)n1 [Example 14] | < 3 |
| Cc1cc(N2CCC23CN(C[C@H]2CN(c4ccc(C#N)c5ncccc45)C[C@@H](C)O2)C3)cc(C)n1 [Example 8] | 7 |
| CNc1cc(N2CCN(C[C@H]3CN(c4ccc(C#N)c5ncccc45)C[C@@H](C)O3)CC2)cc(C)n1 [Example 42, 5-[(2R,6S)-2-methyl-6-[[4-[2-methyl-6-(methylamino)-4-pyridyl]piperazin-1-yl]methyl]morpholin-4-yl]quinoline-8-carbonitrile] | < 3 |
| C[C@@H]1CN(c2ccc(C#N)c3ncccc23)C[C@H](CN[C@@H]2CCCN(c3ccnc(N)c3)C2)O1 [Example 21, 5-[(2S,6R)-2-[[[(3R)-1-(2-amino-4-pyridyl)-3-piperidyl]amino]methyl]-6-methyl-morpholin-4-yl]quinoline-8-carbonitrile] | 15 |
| C[C@@H]1CN(c2ccc(C#N)c3ncccc23)C[C@H](CN2CCN(c3cc(N)nc(CO)c3)CC2)O1 [Example 45, 5-[(2S,6R)-2-[[4-[2-amino-6-(hydroxymethyl)-4-pyridyl]piperazin-1-yl]methyl]-6-methyl-morpholin-4-yl]quinoline-8-carbonitrile] | 14 |
| Cc1cc(N2CC(NC[C@H]3CN(c4ccc(C#N)c5ncccc45)C[C@@H](C)O3)C2)cc(CO)n1 [Example 30] | 14 |
| Cc1cc(N2CCC[C@H](NC[C@H]3CN(c4ccc(C#N)c5ncccc45)C[C@@H](C)O3)C2)cc(CO)n1 [Example 25] | 14 |
| Cc1cc(N2CCOC3CN(CC4CN(c5ccc(C#N)c6ncccc56)CC(C)O4)CC32)cc(C)n1 (single isomer, unassigned) [Example 17B] | 3 |
| Cc1cc(N2CCC[C@H](N(C)C[C@H]3CN(c4ccc(C#N)c5ncccc45)C[C@@H](C)O3)C2)cc(CO)n1 [Example 38] | 4 |
| Cc1cc(N2CCOC3CN(CC4CN(c5ccc(C#N)c6ncccc56)CC(C)O4)CC32)cc(C)n1 (single isomer, unassigned) [Example 17A] | < 3 |
| Cc1cc(N2CCC3(CN(C[C@H]4CN(c5ccc(C#N)c6ncccc56)C[C@@H](C)O4)C3)C2)cc(C)n1 [Example 9] | 51 |
| Cc1cc(N2CC[C@@H](F)[C@H](NC[C@H]3CN(c4ccc(C#N)c5ncccc45)C[C@@H](C)O3)C2)cc(CO)n1 [Example 34] | 4 |
| Cc1cc(N2CCC23CN(C[C@H]2CN(c4ccc(C#N)c5ncccc45)C[C@@H](C)O2)C3)ccn1 [Example 15] | 6 |
| Cc1cc(N2CC[C@H](F)[C@H](NC[C@H]3CN(c4ccc(C#N)c5ncccc45)C[C@@H](C)O3)C2)cc(CO)n1 [Example 33] | 7 |

| Compound | IC50 [nM] |
| --- | --- |
| C[C@@H]1CN(c2ccc(C#N)c3ncccc23)C[C@H](CN2CC3(C2)CN(c2ccnc(C(C)(C)O)c2)C3)O1 [Example 48, 5-[(2S,6R)-2[[2-[2-(1-hydroxy-1-methyl-ethyl)-4-pyridyl]-2,6-diazaspiro[3.3]heptan-6-yl]methyl]-6-methyl-morpholin-4-yl]quinoline-8-carbonitrile] | 198 |
| Cc1cc(N2CC3(CN(C[C@H]4CN(c5ccc(C#N)c6ncccc56)C[C@@H](C)O4)C3)C2)cc(CO)n1 [Example 1, 5-[(2S,6R)-2-[[2-[2-(hydroxymethyl)-6-methyl-4-pyridyl]-2,6-diazaspiro[3.3]heptan-6-yl]methyl]-6-methyl-morpholin-4-yl]quinoline-8-carbonitrile] | 81 |
| Cc1cc(N2CCN(C[C@H]3CN(c4ccc(C#N)c5ncccc45)C[C@@H](C)O3)[C@H](C)C2)cc(CO)n1 [Example 4B] | 5 |
| Cc1cc(NC2CCN(C[C@H]3CN(c4ccc(C#N)c5ncccc45)C[C@@H](C)O3)C2)cc(CO)n1 (some centres unmarked) [Example 6] | 53 |
| Cc1cc(N2CC[C@H](NC[C@H]3CN(c4ccc(C#N)c5ncccc45)C[C@@H](C)O3)C2)cc(CO)n1 [Example 29] | 25 |
| Cc1cc(N2CCC23CN(C[C@H]2CN(c4ccc(C#N)c5ncccc45)C[C@@H](C)O2)C3)cc(CO)n1 [Example 12] | 12 |
| Cc1cc(N2CCN(C[C@H]3CN(c4ccc(C#N)c5ncccc45)C[C@@H](C)O3)CC2)cc(N)n1 [Example 40, 5-[(2S,6R)-2-[[4-(2-amino-6-methyl-4-pyridyl)piperazin-1-yl]methyl]-6-methyl-morpholin-4-yl]quinoline-8-carbonitrile] | < 3 |
| Cc1cc(N2CCC[C@@H](NC[C@H]3CN(c4ccc(C#N)c5ncccc45)C[C@@H](C)O3)C2)cc(CO)n1 [Example 24] | 10 |
| CC(O)c1cc(N2CC3(CN(C[C@H]4CN(c5ccc(C#N)c6ncccc56)C[C@@H](C)O4)C3)C2)ccn1 (stereo partly drawn) [Example 46, 5-[(2S,6R)-2-[[2-[2-(1-hydroxyethyl)-4-pyridyl]-2,6-diazaspiro[3.3]heptan-6-yl]methyl]-6-methyl-morpholin-4-yl]quinoline-8-carbonitrile] | 90 |
| Cc1cc(N2C[C@H]3CN(C[C@H]4CN(c5ccc(C#N)c6ncccc56)C[C@@H](C)O4)C[C@H]3C2)cc(CO)n1 [Example 10] | 22 |
| Cc1cc(N2CC(N(C)C[C@H]3CN(c4ccc(C#N)c5ncccc45)C[C@@H](C)O3)C2)cc(CO)n1 [Example 37] | < 3 |
| Cc1cc(N2CC3(CN(C[C@H]4CN(c5ccc(C#N)c6ncccc56)C[C@@H](C)O4)C3)C2)cc(C(C)O)n1 (stereo partly drawn) [Example 44, 5-[(2S,6R)-2-[[2-[2-(1-hydroxyethyl)-6-methyl-4-pyridyl]-2,6-diazaspiro[3.3]heptan-6-yl]methyl]-6-methyl-morpholin-4-yl]quinoline-8-carbonitrile] | 30 |
| C[C@@H]1CN(c2ccc(C#N)c3ncccc23)C[C@H](CN[C@H]2CCCN(c3ccnc(N)c3)C2)O1 [Example 22] | 38 |
| C[C@@H]1CN(c2ccc(C#N)c3ncccc23)C[C@H](CN2CC3(C2)CN(c2ccnc(C4CC4)c2)C3)O1 [Example 49, 5-[(2S,6R)-2[[2-(2-cyclopropyl-4-pyridyl)-2,6-diazaspiro[3.3]heptan-6-yl]methyl]-6-methyl-morpholin-4-yl]quinoline-8-carbonitrile] | 20 |
| Cc1cc(N2CCN(C[C@H]3CN(c4ccc(C#N)c5ncccc45)C[C@@H](C)O3)[C@@H](C)C2)cc(CO)n1 [Example 4A] | 7 |
| Cc1cc(N(C)C2CN(C[C@H]3CN(c4ccc(C#N)c5ncccc45)C[C@@H](C)O3)C2)cc(C)n1 [Example 11] | 11 |
| Cc1cc(N2CCC[C@@H](N(C)C[C@H]3CN(c4ccc(C#N)c5ncccc45)C[C@@H](C)O3)C2)cc(CO)n1 [Example 35] | 9 |
